The record followed here is ChEMBL document CHEMBL1137152, “Copper dipicolinates as peptidomimetic ligands for the Src SH2 domain” (Bioorg Med Chem Lett, 2004).

The structures appear in SMILES notation.

T1 sequence (P12931 2-536 limits assumed): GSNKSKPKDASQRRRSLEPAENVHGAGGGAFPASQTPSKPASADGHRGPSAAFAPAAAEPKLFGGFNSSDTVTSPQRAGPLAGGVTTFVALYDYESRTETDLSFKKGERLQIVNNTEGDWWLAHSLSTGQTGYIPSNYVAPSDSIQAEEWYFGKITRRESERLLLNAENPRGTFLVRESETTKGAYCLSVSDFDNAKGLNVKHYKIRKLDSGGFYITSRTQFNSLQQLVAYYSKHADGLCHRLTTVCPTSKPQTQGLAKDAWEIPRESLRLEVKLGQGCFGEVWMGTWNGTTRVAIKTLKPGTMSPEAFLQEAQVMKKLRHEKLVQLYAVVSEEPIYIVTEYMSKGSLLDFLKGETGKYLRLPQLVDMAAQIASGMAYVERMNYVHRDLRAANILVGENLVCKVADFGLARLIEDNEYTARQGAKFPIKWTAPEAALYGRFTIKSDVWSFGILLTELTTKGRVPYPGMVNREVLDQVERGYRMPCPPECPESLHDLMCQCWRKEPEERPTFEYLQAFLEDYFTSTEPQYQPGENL

The first experiment has as its target T1, Proto-oncogene tyrosine-protein kinase Src (Homo sapiens, UniProt P12931). Description: Inhibition of fluorescent (GpYEEI) binding to Src protein tyrosine kinase SH2 domain; NA = No significant inhibition.
On to `COC(=O)c1cc(OCC(=O)N[C@H](C(=O)NCc2cccc(OC)c2)c2ccccc2)cc(C(=O)OC)n1`, for which the IC50 result was “Not Active”.

A further experiment deals with T1, Proto-oncogene tyrosine-protein kinase Src. Description: Inhibition of fluorescent (GpYEEI) binding to Src protein tyrosine kinase SH2 domain.
On to `COC(=O)c1cc(OCC(=O)N[C@@H](Cc2ccccc2)C(=O)NCc2cccc(OC)c2)cc(C(=O)OC)n1`, for which the IC50 is 663 µM.

In turn, `COC(=O)c1cc(OCC(=O)N[C@@H](CC(C)C)C(=O)NCc2cccc(OC)c2)cc(C(=O)OC)n1` had an IC50 of 713 µM. Take `COC(=O)c1cc(OCC(=O)N[C@H](C(=O)NCc2ccc3c(c2)OCO3)c2ccccc2)cc(C(=O)OC)n1`: the IC50 was determined as 714 µM. Molecule `COC(=O)c1cc(OCC(=O)N[C@@H](Cc2ccccc2)C(=O)NCc2ccc3c(c2)OCO3)cc(C(=O)OC)n1` came in with an IC50 of 396 µM. `COc1ccc(CNC(=O)[C@H](CC(C)C)NC(=O)COc2cc(C(=O)O)cc(C(=O)O)c2)cc1` gave an IC50 of 864 µM.

Broadly, the IC50 is the point on the concentration scale where inhibition reaches its midpoint.
